Test results as given in patent US10239875B2, “Naphthyridinyl hydrazine derivatives as potent peripheral analgesic agents” (KING SAUD UNIVERSITY, priority 2017, dated 2019).

System: Albino mice
Experiment: mouse writhing test (acetic acid-induced), peripheral analgesic activity
Format: in vivo
Settings: for No. of writhes/20 min: 30 min before i.p. acetic acid 0.7% 10 mL/kg, mean ± S.E.; for Protection (%) / analgesic activity compared with acetylsalicylic acid / placebo control (in words): writhing test; for Protection (%): versus placebo control mean; for analgesic activity compared with acetylsalicylic acid / placebo control (in words): 20 mg/kg orally vs acetylsalicylic acid 150 mg/kg, Dunnett's test P < 0.05
Protocol: The test compounds synthesized in Examples 2-11 were tested for analgesic activity as follows. Albino mice of both sexes (27-30 g body weight each) were used in the experiments. Mice used in this experiment were obtained from the Animal House Colony at the National Research Centre (NRC), Egypt. All animals were housed under standard conditions of natural 12-hour light and dark cycles with free access to food and water. Animals were allowed to adapt to the laboratory environment for one week before use in experimentation. All animal procedures were first approved by the Ethics Committee of the NRC, Egypt, and were performed in accordance with standard recommendations and guidelines for proper care and use of laboratory animals.
The peripheral analgesic activities of compounds 1 to 10 were determined in mice using the standard writhing test. Seventy-two mice were divided into 12 groups of 6 mice. Mice of the first (placebo control) and last (active control) groups were treated orally (p.o.) with the vehicle (5 mL/kg) or acetyl salicylic acid (150 mg/kg), respectively. Animals of the second to eleventh groups were orally given one of the selected compounds at doses of 20 mg/kg. Once 30 minutes passed after administration of medication, each mouse received an intraperitoneal injection of acetic acid (0.7% aqueous solution) in a dose of 10 mL/kg to induce writhing. The mice were then placed in transparent boxes, and the number of writhes per animal was counted for 20 minutes after acetic acid injection. The “protection %” was calculated using the following equation: Protection (%)=[Control mean−Treated mean/Control mean]×100.

[1] = acetylsalicylic acid 150 mg/kg orally in DW
[2] = test compound 20 mg/kg orally in DMSO

SMILES	No. of writhes/20 min [1] [writhes/20 min]	Protection (%) [1] [%]	No. of writhes/20 min [2] [writhes/20 min]	Protection (%) [2] [%]	analgesic activity compared with acetylsalicylic acid / placebo control (in words)
CC(=O)Oc1ccccc1C(=O)O [Acetylsalicylic acid, acetylsalicylic acid, reference compound]	17.4 ± 1.57	78.47	–	–	–
Cc1ccc2c(NN=Cc3ccc(N4CCOCC4)cc3)cc(C)nc2n1 [Compound 1]	–	–	24.8 ± 1.02	69.31	analgesic activity close to that of acetylsalicylic acid
Cc1ccc2c(NN=Cc3ccc(N4CCNCC4)cc3)cc(C)nc2n1 [Compound 2]	–	–	39.6 ± 3.14	50.99	–
Cc1ccc2c(NN=Cc3ccc(N4CCCCC4)cc3)cc(C)nc2n1 [Compound 3]	–	–	36.2 ± 2.58	55.20	–
Cc1ccc2c(NN=Cc3ccc(N4CCN(C)CC4)cc3)cc(C)nc2n1 [Compound 4]	–	–	44.8 ± 2.85	44.55	–
CC(=NNc1cc(C)nc2nc(C)ccc12)c1ccc(N2CCOCC2)cc1 [Compound 5]	–	–	29.2 ± 2.50	63.86	–
CC(=NNc1cc(C)nc2nc(C)ccc12)c1ccc(N2CCNCC2)cc1 [Compound 6]	–	–	26.2 ± 1.32	67.57	analgesic activity close to that of acetylsalicylic acid
CC(=NNc1cc(C)nc2nc(C)ccc12)c1ccc(N2CCCCC2)cc1 [Compound 7]	–	–	23.6 ± 2.16	70.79	analgesic activity close to that of acetylsalicylic acid
